Laboratory results: US10570129B2 (Zoetis Services LLC, priority 2015, dated 2020)

Columns and labels:
[1] = test system: Haemonchus contortus L3; assay: microbe, parasite or virus in culture; assay type: cell-based; conditions: Haemonchus contortus, 96 h, read-out: HcL3 Minimal Effective Concentration (MEC)
[2] = test system: D. immitis microfilariae; assay: Dirofilaria immitis, microfilariae (DiMF) in vitro motility assay; assay type: cell-based; conditions: Dirofilaria immitis, 72 h, read-out: DiMF minimally effective dose (MEC)

Row | Structure (SMILES) | minimal effective concentration [1] [µM] | minimal effective concentration [2] [µM]
1 | N#Cc1cccc2c1c1c(n2C(=O)NCc2ccnc(Cl)c2)CCN(C/C=C/c2ccc(Cl)cc2Cl)C1 [Example 4, (E)-N-((2-chloropyridin-4-yl)methyl)-9-cyano-2-(3-(2,4-dichlorophenyl)allyl)-1,2,3,4-tetrahydro-5H-pyrido[4,3-b]indole-5-carboxamide] | > 100 | 10
2 | N#Cc1ccc2c3c(n(C(=O)NCc4ccnc(Cl)c4)c2c1)CCN(C/C=C/c1ccc(Br)cc1F)C3 [Example 5, (E)-2-(3-(4-bromo-2-fluorophenyl)allyl)-N-((2-chloropyridin-4-yl)methyl)-7-cyano-1,2,3,4-tetrahydro-5H-pyrido[4,3-b]indole-5-carboxamide] | 1 | 5.7
3 | N#Cc1ccc2c3c(n(C(=O)NCc4ccnc(Cl)c4)c2c1)CCN(C/C=C/c1ccc(Br)c(F)c1)C3 [Example 8, (E)-2-(3-(4-bromo-3-fluorophenyl)allyl)-N-((2-chloropyridin-4-yl)methyl)-7-cyano-1,2,3,4-tetrahydro-5H-pyrido[4,3-b]indole-5-carboxamide] | 0.5 | 18.2
4 | N#Cc1ccc2c3c(n(C(=O)NCc4ccnc(Cl)c4)c2c1)CCN(C/C=C/c1cc(F)ccc1Br)C3 [Example 10, (E)-2-(3-(2-bromo-5-fluorophenyl)allyl)-N-((2-chloropyridin-4-yl)methyl)-7-cyano-1,2,3,4-tetrahydro-5H-pyrido[4,3-b]indole-5-carboxamide] | 1 | > 100
5 | N#Cc1ccc2c3c(n(C(=O)NCc4ccnc(Cl)c4)c2c1)CCN(C/C=C/c1cc(Br)ccc1F)C3 [Example 11, (E)-2-(3-(5-bromo-2-fluorophenyl)allyl)-N-((2-chloropyridin-4-yl)methyl)-7-cyano-1,2,3,4-tetrahydro-5H-pyrido[4,3-b]indole-5-carboxamide] | 1.8 | > 100
6 | N#Cc1ccc2c3c(n(C(=O)NCc4ccnc(Cl)c4)c2c1)CCN(C/C=C/c1ccc(F)c(Br)c1)C3 [Example 12, (E)-2-(3-(3-bromo-4-fluorophenyl)allyl)-N-((2-chloropyridin-4-yl)methyl)-7-cyano-1,2,3,4-tetrahydro-5H-pyrido[4,3-b]indole-5-carboxamide] | 1.8 | 18.2
7 | N#Cc1ccc2c3c(n(C(=O)NCc4ccnc(Cl)c4)c2c1)CCN(C/C=C/c1ccc(Br)c(F)c1F)C3 [Example 14, (E)-2-(3-(4-bromo-2,3-difluorophenyl)allyl)-N-((2-chloropyridin-4-yl)methyl)-7-cyano-1,2,3,4-tetrahydro-5H-pyrido[4,3-b]indole-5-carboxamide] | 0.5 | > 100
8 | N#Cc1ccc2c3c(n(C(=O)NCc4ccnc(Cl)c4)c2c1)CCN(C/C=C/c1ccc(Cl)c(F)c1F)C3 [Example 15, (E)-2-(3-(4-chloro-2,3-difluorophenyl)allyl)-N-((2-chloropyridin-4-yl)methyl)-7-cyano-1,2,3,4-tetrahydro-5H-pyrido[4,3-b]indole-5-carboxamide] | 1 | > 100
9 | N#Cc1ccc2c3c(n(C(=O)NCc4ccnc(Cl)c4)c2c1)CCN(C/C=C/c1c(F)c(F)c(F)c(F)c1F)C3 [Example 16, (E)-N-((2-chloropyridin-4-yl)methyl)-7-cyano-2-(3-(perfluorophenyl)allyl)-1,2,3,4-tetrahydro-5H-pyrido[4,3-b]indole-5-carboxamide] | > 100 | > 100
10 | N#Cc1ccc2c3c(n(C(=O)NCc4ccnc(Cl)c4)c2c1)CCN(C/C=C/c1c(F)c(F)c(Cl)c(F)c1F)C3 [Example 17, (E)-2-(3-(4-chloro-2,3,5,6-tetrafluorophenyl)allyl)-N-((2-chloropyridin-4-yl)methyl)-7-cyano-1,2,3,4-tetrahydro-5H-pyrido[4,3-b]indole-5-carboxamide] | 1 | > 100
11 | N#Cc1ccc2c3c(n(C(=O)NCc4ccnc(Cl)c4)c2c1)CCN(C/C=C/c1ccc(F)cc1Cl)C3 [Example 24, (E)-2-(3-(2-chloro-4-fluorophenyl)allyl)-N-((2-chloropyridin-4-yl)methyl)-7-cyano-1,2,3,4-tetrahydro-5H-pyrido[4,3-b]indole-5-carboxamide] | 5.7 | 7.6
12 | N#Cc1cccc2c1c1c(n2C(=O)NCc2ccnc(Cl)c2)CCN(C/C=C/c2ccc(F)cc2Cl)C1 [Example 25, (E)-2-(3-(2-chloro-4-fluorophenyl)allyl)-N-((2-chloropyridin-4-yl)methyl)-9-cyano-1,2,3,4-tetrahydro-5H-pyrido[4,3-b]indole-5-carboxamide] | > 100 | 33
13 | N#Cc1ccc2c3c(n(C(=O)NCc4ccnc(Cl)c4)c2c1)CCN(C/C=C/c1ccc(F)cc1F)C3 [Example 26, (E)-N-((2-chloropyridin-4-yl)methyl)-7-cyano-2-(3-(2,4-difluorophenyl)allyl)-1,2,3,4-tetrahydro-5H-pyrido[4,3-b]indole-5-carboxamide] | 2.4 | 5.7
14 | N#Cc1ccc2c3c(n(C(=O)NCc4ccnc(Cl)c4)c2c1)CCN(C/C=C/c1ccc(F)c(Cl)c1)C3 [Example 27, (E)-2-(3-(3-chloro-4-fluorophenyl)allyl)-N-((2-chloropyridin-4-yl)methyl)-7-cyano-1,2,3,4-tetrahydro-5H-pyrido[4,3-b]indole-5-carboxamide] | 1.8 | 1.8
15 | COc1cc(CNC(=O)n2c3c(c4cc(C#N)ccc42)CN(C/C=C/c2cc(F)c(F)c(F)c2)CC3)ccn1 [Example 63, (E)-8-cyano-N-((2-methoxypyridin-4-yl)methyl)-2-(3-(3,4,5-trifluorophenyl)allyl)-1,2,3,4-tetrahydro-5H-pyrido[4,3-b]indole-5-carboxamide] |  | 0.3
16 | COc1cc(CNC(=O)n2c3c(c4cc(C#N)ccc42)CN(C/C=C/c2ccc(Cl)cc2Cl)CC3)ccn1 [Example 65, (E)-8-cyano-2-(3-(2,4-dichlorophenyl)allyl)-N-((2-methoxypyridin-4-yl)methyl)-1,2,3,4-tetrahydro-5H-pyrido[4,3-b]indole-5-carboxamide] |  | > 100
17 | COc1cc(CNC(=O)n2c3c(c4cc(C#N)ccc42)CN(C/C=C/c2ccc(Br)cc2F)CC3)ccn1 [Example 66, (E)-2-(3-(4-bromo-2-fluorophenyl)allyl)-8-cyano-N-((2-methoxypyridin-4-yl)methyl)-1,2,3,4-tetrahydro-5H-pyrido[4,3-b]indole-5-carboxamide] |  | > 100
18 | COc1cc(CNC(=O)n2c3c(c4cc(C#N)ccc42)CN(C/C=C/c2ccc(F)cc2F)CC3)ccn1 [Example 67, (E)-8-cyano-2-(3-(2,4-difluorophenyl)allyl)-N-((2-methoxypyridin-4-yl)methyl)-1,2,3,4-tetrahydro-5H-pyrido[4,3-b]indole-5-carboxamide] |  | 0.01
